The values below come from patent US10138247B2, “7-(morpholin-4-yl)pyrazole[1,5-A]pyrimidine derivatives as PI3 kinase inhibitors” (priority 2015, dated 2018).

One data set addresses T1, PI3Kβ (Homo sapiens, UniProt P42338).
T1 construct: purchased Merck Millipore
The experiment in a line: PI3K kinases inhibition in vitro (ADP-Glo), PI3Kβ. Format: biochemical. Here is the method:
(§1) Tested compounds were dissolved in 100% DMSO, and thus obtained solutions were serially diluted in 1× reaction buffer. Recombinant kinase was diluted in a reaction mixture comprising 5× reaction buffer, substrate (1 mM sodium diacetate 4,5-bisphosphate phosphatydylinositol (PIP2) solution in 40 mM Tris buffer), and water. To the wells in a 96-wells plate, 5 μl of compounds solutions and 15 μl of the kinase solution in the reaction mixture were added. To initiate interaction of tested chemical compounds with the enzyme, the plate was incubated for 10 minutes at suitable temperature in a plate thermostat with orbital shaking at 600 rpm. Negative control wells contained all above reagents except tested compound and kinase, and positive control wells contained all above reagents except tested compounds. Enzymatic reaction was initiated by adding 5 μl of 150 μM ATP solution, subsequently the plate was incubated for 1 hour at 25° C. or 30° C. (depending on PI3K isoform tested) in plate thermostat with orbital shaking of the plate contents at 600 rpm. Reaction conditions are presented below in Table 12.
(§2) Detection of ADP formed in the enzymatic reaction was then performed using ADP-Glo Kinase Assay (Promega). To the wells of a 96-well plate 25 μl of ADP-Glo Reagent were added, and the plate was incubated for 40 minutes at 25° C. in a plate thermostat with orbital shaking at 600 rpm. Then to the wells of 96-well plate 50 μl of Kinase Detection Reagent were added and the plate was incubated for 40 minutes at 25° C. in a plate thermostat with orbital shaking at 600 rpm. After incubation time, luminescence intensity in a well was measured by Victor Light luminometer (Perkin Elmer, Inc.).
(§3) IC50 values were determined on the basis of luminescence intensity measurements in wells containing tested compounds at different concentrations and in control wells. These values were calculated with Graph Pad 5.03 software by fitting the curve using non-linear regression. Each compound was tested at least in quadruplicates (4 wells) on two 96-well plates using at least 4 wells of each of the controls.
(ADP-Glo turns the ADP formed in a reaction into a luminescent signal.)

For a further data set, the target named is T2, PI3Kα (Homo sapiens, UniProt P42336).
T2 construct: purchased Carna Biosciences
T2 sequence (P42336 whole entry): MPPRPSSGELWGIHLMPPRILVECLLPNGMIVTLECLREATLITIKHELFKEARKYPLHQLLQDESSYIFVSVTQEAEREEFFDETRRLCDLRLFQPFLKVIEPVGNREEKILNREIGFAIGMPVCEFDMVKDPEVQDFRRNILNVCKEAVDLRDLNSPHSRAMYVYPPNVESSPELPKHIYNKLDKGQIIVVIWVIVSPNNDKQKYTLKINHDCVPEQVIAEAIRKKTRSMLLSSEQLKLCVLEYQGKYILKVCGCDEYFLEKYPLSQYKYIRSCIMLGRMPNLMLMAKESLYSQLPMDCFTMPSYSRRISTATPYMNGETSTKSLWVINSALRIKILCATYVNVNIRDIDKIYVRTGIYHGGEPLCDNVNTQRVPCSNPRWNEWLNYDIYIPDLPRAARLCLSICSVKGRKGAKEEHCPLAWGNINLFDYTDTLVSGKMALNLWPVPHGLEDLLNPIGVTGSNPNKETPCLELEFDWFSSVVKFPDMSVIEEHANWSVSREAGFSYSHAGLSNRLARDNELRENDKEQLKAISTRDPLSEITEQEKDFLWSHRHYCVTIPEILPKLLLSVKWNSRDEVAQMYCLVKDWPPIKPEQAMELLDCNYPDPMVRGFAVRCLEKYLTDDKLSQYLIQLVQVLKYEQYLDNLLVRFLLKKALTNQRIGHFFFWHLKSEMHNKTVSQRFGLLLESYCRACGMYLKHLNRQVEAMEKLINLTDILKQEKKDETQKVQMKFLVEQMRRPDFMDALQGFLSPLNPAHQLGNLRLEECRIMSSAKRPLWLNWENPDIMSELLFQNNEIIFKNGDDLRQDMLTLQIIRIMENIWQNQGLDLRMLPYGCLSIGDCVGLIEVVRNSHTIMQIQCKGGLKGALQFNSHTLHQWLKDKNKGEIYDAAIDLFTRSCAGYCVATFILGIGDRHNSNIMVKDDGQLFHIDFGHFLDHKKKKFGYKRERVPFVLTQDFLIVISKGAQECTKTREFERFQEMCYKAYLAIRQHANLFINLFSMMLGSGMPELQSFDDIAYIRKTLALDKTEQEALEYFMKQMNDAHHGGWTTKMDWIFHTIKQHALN
T2 sequence (P27986 whole entry partner): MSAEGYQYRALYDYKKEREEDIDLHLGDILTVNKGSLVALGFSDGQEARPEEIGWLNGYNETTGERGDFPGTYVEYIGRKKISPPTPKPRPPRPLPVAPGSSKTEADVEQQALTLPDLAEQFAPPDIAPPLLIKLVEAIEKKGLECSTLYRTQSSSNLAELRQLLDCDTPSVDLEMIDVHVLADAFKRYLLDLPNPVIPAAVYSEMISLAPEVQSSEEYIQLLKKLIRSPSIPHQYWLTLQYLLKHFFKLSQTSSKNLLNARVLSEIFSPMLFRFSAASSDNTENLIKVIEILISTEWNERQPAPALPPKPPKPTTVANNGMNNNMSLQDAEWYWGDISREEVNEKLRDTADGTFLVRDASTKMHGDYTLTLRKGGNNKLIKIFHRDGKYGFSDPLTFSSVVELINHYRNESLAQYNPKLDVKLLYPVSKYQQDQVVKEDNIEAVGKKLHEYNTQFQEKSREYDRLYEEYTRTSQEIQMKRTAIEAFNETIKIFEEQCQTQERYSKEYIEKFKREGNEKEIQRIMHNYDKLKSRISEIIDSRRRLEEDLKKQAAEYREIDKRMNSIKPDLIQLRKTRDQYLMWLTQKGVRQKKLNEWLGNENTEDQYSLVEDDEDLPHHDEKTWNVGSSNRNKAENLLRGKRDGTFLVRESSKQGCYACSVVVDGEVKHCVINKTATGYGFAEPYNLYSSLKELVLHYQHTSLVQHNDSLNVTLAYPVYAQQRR
As to the kind of experiment: PI3K kinases inhibition in vitro (ADP-Glo), PI3Kα. The data set is classed as biochemical. How it is done:
as §1, §2, §3

Another data set addresses T3, PI3Kγ (Homo sapiens, UniProt P48736).
T3 construct: purchased Merck Millipore
The experiment in a line: PI3K kinases inhibition in vitro (ADP-Glo), PI3Kγ. Format: biochemical. How it is done:
as §1, §2, §3

Data set [1] is described as follows: Pharmacokinetics testing in vivo, oral, rats. To be noted: rat, Wistar rats, oral 30 mg/kg, serum. How it is done: Tests were performed on about 12 weeks old Wistar rats, weight 250-300 g. Rats were given orally tested compounds at 30 mg/kg m.c. Blood samples were collected from animals for analysis in 6 time points—30 min, 1 h, 2 h, 4 h, 7 h, and 12 h from administration of the compound. Blood was collected to tubes with K2EDTA and centrifuged for 15 min, 2000×g, at room temperature to separate serum. Collected serum samples were maintained at −20° C. before analysis. Each of the compounds was tested on a group of 5 animals.
Serum concentrations of tested compounds were determined by spectrophotometry. For each of tested compounds, time to reach maximum serum concentration (Tmax), maximum concentration (Cmax), and area under the curve (AUC) were determined.

In a further data set the target is T4, PI3Kδ (Homo sapiens, UniProt O00329).
T4 construct: purchased Merck Millipore
T4 sequence (O00329 whole entry): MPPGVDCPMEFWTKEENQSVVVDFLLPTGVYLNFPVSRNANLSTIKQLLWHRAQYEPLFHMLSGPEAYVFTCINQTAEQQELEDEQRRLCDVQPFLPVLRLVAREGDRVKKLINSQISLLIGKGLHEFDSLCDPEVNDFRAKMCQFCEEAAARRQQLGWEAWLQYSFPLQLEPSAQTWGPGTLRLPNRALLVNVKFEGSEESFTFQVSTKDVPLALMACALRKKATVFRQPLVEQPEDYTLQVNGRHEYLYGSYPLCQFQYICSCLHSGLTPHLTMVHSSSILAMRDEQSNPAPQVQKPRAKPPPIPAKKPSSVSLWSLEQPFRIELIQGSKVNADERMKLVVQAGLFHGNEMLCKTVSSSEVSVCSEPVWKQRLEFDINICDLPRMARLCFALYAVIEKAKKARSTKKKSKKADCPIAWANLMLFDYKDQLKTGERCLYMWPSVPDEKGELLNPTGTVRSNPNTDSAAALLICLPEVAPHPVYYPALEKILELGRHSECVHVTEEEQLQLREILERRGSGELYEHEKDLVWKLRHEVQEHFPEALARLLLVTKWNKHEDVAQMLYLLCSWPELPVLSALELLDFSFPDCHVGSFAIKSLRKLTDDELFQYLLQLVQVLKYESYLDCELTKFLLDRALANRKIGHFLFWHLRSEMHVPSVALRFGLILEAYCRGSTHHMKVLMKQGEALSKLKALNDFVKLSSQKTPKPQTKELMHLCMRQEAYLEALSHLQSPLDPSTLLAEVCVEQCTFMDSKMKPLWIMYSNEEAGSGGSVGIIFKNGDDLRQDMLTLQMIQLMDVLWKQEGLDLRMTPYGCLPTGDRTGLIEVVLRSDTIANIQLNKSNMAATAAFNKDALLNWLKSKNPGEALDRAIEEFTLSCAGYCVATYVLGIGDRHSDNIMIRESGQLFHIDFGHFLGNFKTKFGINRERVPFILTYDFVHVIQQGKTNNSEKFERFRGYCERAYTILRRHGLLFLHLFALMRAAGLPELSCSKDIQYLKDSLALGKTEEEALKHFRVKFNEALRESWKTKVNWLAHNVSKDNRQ
T4 sequence (P27986 whole entry, further chain): as the sequence (P27986 whole entry partner) above
The experiment in a line: PI3K kinases inhibition in vitro (ADP-Glo), PI3Kδ. Format: biochemical. Here is the method:
as §1, §2, §3

[2] abbreviates: averaged, recombinant kinase, 30° C., 1 h, PIP2 50 μM, read-out: PI3Kγ IC50.
[3] abbreviates: averaged, recombinant kinase, 25° C., 1 h, PIP2 30 μM, read-out: PI3Kδ IC50.
Where [4] appears, read: averaged, recombinant kinase, 30° C., 1 h, PIP2 50 μM, read-out: PI3Kβ IC50.

Read-outs that look alike come from different tables or passages of the source.

T1 sequence (P42338 whole entry): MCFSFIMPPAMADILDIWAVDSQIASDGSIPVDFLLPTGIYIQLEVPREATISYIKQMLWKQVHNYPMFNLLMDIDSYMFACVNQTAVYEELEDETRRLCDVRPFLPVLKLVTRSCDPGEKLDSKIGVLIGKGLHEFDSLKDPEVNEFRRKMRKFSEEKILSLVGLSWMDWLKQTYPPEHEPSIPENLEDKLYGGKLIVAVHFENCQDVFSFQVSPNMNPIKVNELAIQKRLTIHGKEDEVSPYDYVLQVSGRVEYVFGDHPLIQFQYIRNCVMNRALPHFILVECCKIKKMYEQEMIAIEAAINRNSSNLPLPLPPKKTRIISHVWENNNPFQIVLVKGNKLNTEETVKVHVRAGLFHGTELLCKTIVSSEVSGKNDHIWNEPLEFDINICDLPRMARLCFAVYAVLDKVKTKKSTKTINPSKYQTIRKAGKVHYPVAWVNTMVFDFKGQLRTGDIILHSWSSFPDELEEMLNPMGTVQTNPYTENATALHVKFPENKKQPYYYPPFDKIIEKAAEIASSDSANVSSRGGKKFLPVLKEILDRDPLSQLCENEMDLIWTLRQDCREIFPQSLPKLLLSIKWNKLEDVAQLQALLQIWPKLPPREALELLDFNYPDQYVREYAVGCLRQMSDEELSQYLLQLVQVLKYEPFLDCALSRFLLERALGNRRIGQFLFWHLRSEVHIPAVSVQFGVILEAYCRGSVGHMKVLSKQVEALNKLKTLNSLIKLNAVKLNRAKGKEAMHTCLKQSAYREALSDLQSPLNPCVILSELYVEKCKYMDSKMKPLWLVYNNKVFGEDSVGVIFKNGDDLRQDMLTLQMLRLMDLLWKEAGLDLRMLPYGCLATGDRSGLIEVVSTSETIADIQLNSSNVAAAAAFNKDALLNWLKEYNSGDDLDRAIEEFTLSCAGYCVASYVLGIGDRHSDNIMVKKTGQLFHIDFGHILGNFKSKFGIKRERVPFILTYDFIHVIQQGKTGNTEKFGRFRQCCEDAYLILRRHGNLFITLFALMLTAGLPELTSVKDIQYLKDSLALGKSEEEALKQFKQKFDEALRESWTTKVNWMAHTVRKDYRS
T1 sequence (P27986 whole entry, further chain): as the sequence (P27986 whole entry partner) above
T3 sequence (P48736 whole entry): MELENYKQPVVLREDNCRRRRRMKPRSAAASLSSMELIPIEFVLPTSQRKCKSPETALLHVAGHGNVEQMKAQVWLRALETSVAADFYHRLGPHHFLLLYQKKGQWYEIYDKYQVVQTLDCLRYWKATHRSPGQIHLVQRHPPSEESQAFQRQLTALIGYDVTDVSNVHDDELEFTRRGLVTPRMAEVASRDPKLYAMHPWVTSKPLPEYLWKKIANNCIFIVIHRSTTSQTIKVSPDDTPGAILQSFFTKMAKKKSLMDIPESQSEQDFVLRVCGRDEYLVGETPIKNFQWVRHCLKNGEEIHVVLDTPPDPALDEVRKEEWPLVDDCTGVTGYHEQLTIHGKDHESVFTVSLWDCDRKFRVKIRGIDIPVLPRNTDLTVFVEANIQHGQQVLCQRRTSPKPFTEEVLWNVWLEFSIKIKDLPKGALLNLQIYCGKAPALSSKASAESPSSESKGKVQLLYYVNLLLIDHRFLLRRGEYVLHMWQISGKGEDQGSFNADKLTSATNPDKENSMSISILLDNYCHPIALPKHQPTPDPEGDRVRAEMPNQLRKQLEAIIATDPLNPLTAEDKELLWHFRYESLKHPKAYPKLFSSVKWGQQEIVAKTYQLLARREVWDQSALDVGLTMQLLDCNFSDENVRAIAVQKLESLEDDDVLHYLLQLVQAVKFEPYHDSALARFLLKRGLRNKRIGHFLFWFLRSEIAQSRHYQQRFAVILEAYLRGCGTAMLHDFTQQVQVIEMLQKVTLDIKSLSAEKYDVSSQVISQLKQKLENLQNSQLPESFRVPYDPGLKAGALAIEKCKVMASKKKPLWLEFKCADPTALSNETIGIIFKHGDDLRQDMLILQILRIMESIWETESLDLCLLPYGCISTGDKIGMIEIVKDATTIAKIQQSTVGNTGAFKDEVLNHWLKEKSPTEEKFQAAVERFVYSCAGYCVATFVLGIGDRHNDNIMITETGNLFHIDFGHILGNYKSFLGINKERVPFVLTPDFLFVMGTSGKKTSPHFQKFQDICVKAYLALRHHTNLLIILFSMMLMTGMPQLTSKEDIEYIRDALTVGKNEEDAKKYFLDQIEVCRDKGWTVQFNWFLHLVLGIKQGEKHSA

As for `CC(C)(O)C1CCN(Cc2cc3nc(-c4cccc5[nH]ccc45)cc(N4CCOCC4)n3n2)CC1` [Example 4, 2-((4-(2-hydroxypropan-2-yl)-piperidin-1-yl)methyl)-5-(1H-indol-4-yl)-7-(morpholin-4-yl)pyrazolo [1,5-a]pyrimidine], the IC50 (usually the midpoint of a concentration-inhibition curve) on PI3Kβ was greater than 1000 nM; against PI3Kα, greater than 1000 nM; on PI3Kγ, greater than 1000 nM; at PI3Kδ, less than 100 nM. In data set [1], the AUC – broadly, the area under the concentration-time curve, a measure of exposure – stood at 3580 ng·h/mL. In data set [1], the concentration peaked (Cmax) at 600 ng/mL. In addition, the time of peak concentration (Tmax) (commonly the time at which the peak concentration occurs) in data set [1] amounted to 2 h.
For the compound `CC(C)(C)N1CCN(Cc2cc3nc(-c4cccc5[nH]ccc45)cc(N4CCOCC4)n3n2)CC1` [Example 8, 2-((4-tert-butylpiperazin-1-yl)-methyl)-5-(1H-indol-4-yl)-7-(morpholin-4-yl)pyrazolo[1,5-a]-pyrimidine], the IC50 at PI3Kβ was greater than 1000 nM; on PI3Kα it was greater than 1000 nM; at PI3Kγ, greater than 1000 nM; at PI3Kδ it was less than 100 nM. In addition, the AUC in data set [1] worked out at 1290 ng·h/mL. Moreover, the peak level in data set [1] (Cmax) was 200 ng/mL. Moreover, the Tmax in data set [1] amounted to 2 h.
For `CC(C)(C)N1CCN(Cc2cc3nc(-c4c(F)ccc5[nH]ccc45)cc(N4CCOCC4)n3n2)CC1` [Example 11, 2-((4-tert-butylpiperazin-1-yl)-methyl)-5-(5-fluoro-1H-indol-4-yl)-7-(morpholin-4-yl)pyrazolo[1,5-a]-pyrimidine], the IC50 at PI3Kβ is greater than 1000 nM; on PI3Kα, greater than 1000 nM; on PI3Kγ (setting [2]), greater than 1000 nM; at PI3Kδ (setting [3]), less than 100 nM. In data set [1], this compound gave an AUC of 1250 ng·h/mL. Further, the concentration in data set [1] peaked (Cmax) at 300 ng/mL. Also, the Tmax in data set [1] was determined as 2 h.
In the case of `Fc1ccc2[nH]ccc2c1-c1cc(N2CCOCC2)n2nc(CN3CCN(C4COC4)CC3)cc2n1` [Example 35], the half-maximal inhibitory concentration (IC50) at PI3Kβ (setting [4]) was greater than 1000 nM; at PI3Kα, greater than 1000 nM; on PI3Kγ (setting [2]), greater than 1000 nM; on PI3Kδ (setting [3]), less than 100 nM.
As to `CC(C)(C)N1CCN(Cc2cc3nc(-n4c(C(F)F)nc5ccccc54)cc(N4CCOCC4)n3n2)CC1` [Example 50, 5-(2-(difluoromethyl)benzimidazol-1-yl)-2-((4-tert-butylpiperazin-1-yl)methyl)-7-(morpholin-4-yl)-pyrazolo[1,5-a]pyrimidine], the IC50 on PI3Kβ (setting [4]) is greater than 1000 nM; against PI3Kα it was 100 to 1000 nM; at PI3Kγ (setting [2]) it was greater than 1000 nM; at PI3Kδ (setting [3]), less than 100 nM. In data set [1], the AUC was 5030 ng·h/mL. The Cmax – broadly, the highest concentration seen after dosing – in data set [1] came to 900 ng/mL. Also, the Tmax in data set [1] amounted to 2 h.
Regarding `CC(C)(O)C1CCN(Cc2cc3nc(-n4c(C(F)F)nc5ccccc54)cc(N4CCOCC4)n3n2)CC1` [Example 51, 5-(2-(difluoromethyl)benzimidazol-1-yl)-2-((4-(2-hydroxypropan-2-yl)piperidin-1-yl)methyl)-7-(morpholin-4-yl)pyrazolo[1,5-a]-pyrimidine], the IC50 at PI3Kβ (setting [4]) was greater than 1000 nM; at PI3Kα it was greater than 1000 nM; at PI3Kγ (setting [2]), greater than 1000 nM; at PI3Kδ (setting [3]), less than 100 nM.
As for `CC(C)(C)N1CCN(Cc2cc3nc(-n4c(C(F)F)nc5cnccc54)cc(N4CCOCC4)n3n2)CC1` [Example 62, 5-(2-(difluoromethyl)imidazo[4,5-c]pyridin-1-yl)-2-((4-tert-butylpiperazin-1-yl)methyl)-7-(morpholin-4-yl)pyrazolo[1,5-a]-pyrimidine], the IC50 at PI3Kβ (setting [4]) was greater than 1000 nM; against PI3Kα, greater than 1000 nM; on PI3Kγ (setting [2]), greater than 1000 nM; at PI3Kδ (setting [3]), 100 to 1000 nM.
Regarding `FC(F)c1nc2ccccc2n1-c1cc(N2CCOCC2)n2nc(CN3CC(N4CCOCC4)C3)cc2n1` [Example 64, 5-(2-(difluoromethyl)benzimidazol-1-yl)-2-((3-(morpholin-4-yl)-azetidin-1-yl)methyl)-7-(morpholin-4-yl)pyrazolo[1,5-a]pyrimidine], the IC50 on PI3Kβ (setting [4]) is greater than 1000 nM; against PI3Kα it was 100 to 1000 nM; at PI3Kγ (setting [2]), greater than 1000 nM; on PI3Kδ (setting [3]), less than 100 nM.
With `FC(F)c1nc2ccccc2n1-c1cc(N2CCOCC2)n2nc(CN3CC(N4CCC(F)(F)CC4)C3)cc2n1` [Example 66, 5-(2-(difluoromethyl)benzimidazol-1-yl)-2-((3-(4,4-difluoropiperidin-1-yl)azetidin-1-yl)methyl)-7-(morpholin-4-yl)pyrazolo[1,5-a]-pyrimidine], the IC50 is greater than 1000 nM at PI3Kβ (setting [4]), 100 to 1000 nM on PI3Kα, greater than 1000 nM at PI3Kγ (setting [2]) and less than 100 nM at PI3Kδ (setting [3]).
Take `Cc1c(CN2CCN(C(C)(C)C)CC2)nn2c(N3CCOCC3)cc(-n3c(C(F)F)nc4ccccc43)nc12` [Example 68, 5-(2-(difluoromethyl)benzimidazol-1-yl)-3-methyl-2-((4-tert-butylpiperazin-1-yl)methyl)-7-(morpholin-4-yl)pyrazolo[1,5-a]-pyrimidine]: the IC50 on PI3Kβ (setting [4]) is greater than 1000 nM; on PI3Kα it was 100 to 1000 nM; on PI3Kγ (setting [2]), greater than 1000 nM; at PI3Kδ (setting [3]) it was less than 100 nM.
Regarding `Cc1c(CN2CCC(C(C)(C)O)CC2)nn2c(N3CCOCC3)cc(-n3c(C(F)F)nc4ccccc43)nc12` [Example 69, 5-(2-(difluoromethyl)benzimidazol-1-yl)-3-methyl-2-((4-(2-hydroxy-propan-2-yl)piperidin-1-yl)methyl)-7-(morpholin-4-yl)pyrazolo[1,5-a]-pyrimidine], the IC50 on PI3Kβ (setting [4]) is greater than 1000 nM; against PI3Kα it was 100 to 1000 nM; at PI3Kγ (setting [2]), greater than 1000 nM; at PI3Kδ (setting [3]), less than 100 nM.
As to `CC(C)(C)N1CCN(C(=O)c2cc3nc(-c4cccc5[nH]ccc45)cc(N4CCOCC4)n3n2)CC1` [Example 70, 2-(4-tert-butylpiperazin-1-ylcarbonyl)-5-(1H-indol-4-yl)-7-(morpholin-4-yl)pyrazolo[1,5-a]pyrimidine], the half-maximal inhibitory concentration (IC50) at PI3Kβ (setting [4]) is greater than 1000 nM; at PI3Kα, greater than 1000 nM; at PI3Kγ (setting [2]) it was greater than 1000 nM; on PI3Kδ (setting [3]) it was less than 100 nM.
For `CC(C)(C)N1CCN(Cc2nn3c(N4CCOCC4)cc(-n4c(C(F)F)nc5ccccc54)nc3c2Cl)CC1` [Example 71, 5-(2-(difluoromethyl)benzimidazol-1-yl)-3-chloro-2-((4-tert-butylpiperazin-1-yl)methyl)-7-(morpholin-4-yl)pyrazolo[1,5-a]pyrimidine], the IC50 at PI3Kβ (setting [4]) was greater than 1000 nM; at PI3Kα, 100 to 1000 nM; at PI3Kγ (setting [2]), greater than 1000 nM; on PI3Kδ (setting [3]), less than 100 nM.
